Values quoted from earlier work in patent US20240252403A1, “SKIN CARE COMPOSITION FOR APPLICATION TO SKIN” (COSMED PHARMACEUTICAL CO., LTD., priority 2021, published 2024).

| saturation solubility | Compound |
| --- | --- |
| 7.9 g/100 g | NCCS(=O)(=O)O [taurine] |
| 13.0 g/100 g | N[C@@H](CCC(=O)N[C@@H](CS)C(=O)NCC(=O)O)C(=O)O [glutathione] |

| Compound | saturation solubility |
| --- | --- |
| Cc1ncc(CO)c(CO)c1O.Cl [pyridoxine hydrochloride] | 22.0 g/100 g |
